Laboratory results from patent publication US12655116B2, “Substituted isophthalic acid diamides” (Bayer Aktiengesellschaft, priority 2020, dated 2026).

Experiments:
DIGSA [1] = experiment: Post-emergence herbicidal action against DIGSA; assay type: in vivo, Digitaria sanguinalis; conditions: Digitaria sanguinalis, 504 h
Summary of the method: (§1)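 Weeds in sandy loam soil received a post-emergence spray at the one-leaf stage. Compounds were applied as WP or EC in water, 600 to 800 l/ha, with 0.2% wetting agent. Activity in % was judged visually after roughly 3 weeks against untreated plants.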

ALOMY [2] = experiment: Pre-emergence herbicidal action against ALOMY; assay type: in vivo, Alopecurus myosuroides; conditions: Alopecurus myosuroides, 504 h; 80 g/ha, pre-emergence, scored visually after 3 weeks vs untreated controls (100% = plants have died, 0% = like control plants)
Summary of the method: (§2)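 Visual rating at 3 weeks vs untreated pots; 0–100% scale, 100% = plants died. Treatment: aqueous WP/EC spray onto covering soil, 600–800 l/ha, 0.2% wetter, seeds in sandy loam.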

PHBPU [3] = experiment: Pre-emergence herbicidal action against PHBPU; assay type: in vivo, Pharbitis purpurea; conditions: Ipomoea purpurea, 504 h, dosage 80 g/ha
Summary of the method: as §2

AMARE [4] = experiment: Post-emergence herbicidal action against AMARE; assay type: in vivo, Amaranthus retroflexus; conditions: Amaranthus retroflexus, 504 h, 20 g/ha, visual assessment about 3 weeks after treatment, 100% = plants have died, 0% = like control plants
Summary of the method: as §1

MATIN [5] = experiment: Pre-emergence herbicidal action against MATIN; assay type: in vivo, Matricaria inodora; conditions: Tripleurospermum inodorum, 504 h
Summary of the method: as §2

VIOTR [6] = experiment: Pre-emergence herbicidal action against VIOTR; assay type: in vivo, Viola tricolor; conditions: Viola tricolor, 504 h
Summary of the method: as §2

ECHCG [7] = experiment: Post-emergence herbicidal action against ECHCG; assay type: in vivo, Echinochloa crus-galli; conditions: Echinochloa crus-galli, 504 h, dosage 20 g/ha
Summary of the method: as §1

DIGSA [8] = experiment: Pre-emergence herbicidal action against DIGSA; assay type: in vivo, Digitaria sanguinalis; conditions: Digitaria sanguinalis, 504 h
Summary of the method: as §2

POLCO = experiment: Pre-emergence herbicidal action against POLCO; assay type: in vivo, Polygonum convolvulus; conditions: Fallopia convolvulus, 504 h, dosage 80 g/ha
Summary of the method: as §2

AVEFA = experiment: Pre-emergence herbicidal action against AVEFA; assay type: in vivo, Avena fatua; conditions: Avena fatua, 504 h; 80 g/ha, pre-emergence
Summary of the method: as §2

ABUTH [9] = experiment: Pre-emergence herbicidal action against ABUTH; assay type: in vivo, Abutilon theophrasti; conditions: Abutilon theophrasti, 504 h, 80 g/ha, scored visually after 3 weeks vs untreated controls (100% = plants have died, 0% = like control plants)
Summary of the method: as §2

AMARE [10] = experiment: Pre-emergence herbicidal action against AMARE; assay type: in vivo, Amaranthus retroflexus; conditions: Amaranthus retroflexus, 504 h, scored visually after 3 weeks vs untreated controls, 100% = plants have died, 0% = like control plants
Summary of the method: as §2

PHBPU [11] = experiment: Post-emergence herbicidal action against PHBPU; assay type: in vivo, Pharbitis purpurea; conditions: Ipomoea purpurea, 504 h, dosage 20 g/ha
Summary of the method: as §1

MATIN [12] = experiment: Post-emergence herbicidal action against MATIN; assay type: in vivo, Matricaria inodora; conditions: Tripleurospermum inodorum, 504 h, dosage 20 g/ha
Summary of the method: as §1

ABUTH [13] = experiment: Post-emergence herbicidal action against ABUTH; assay type: in vivo, Abutilon theophrasti; conditions: Abutilon theophrasti, 504 h, visual assessment about 3 weeks after treatment vs untreated controls
Summary of the method: as §1

LOLRI = experiment: Pre-emergence herbicidal action against LOLRI; assay type: in vivo, Lolium rigidum; conditions: Lolium rigidum, 504 h, 80 g/ha
Summary of the method: as §2

ECHCG [14] = experiment: Pre-emergence herbicidal action against ECHCG; assay type: in vivo, Echinochloa crus-galli; conditions: Echinochloa crus-galli, 504 h, 80 g/ha
Summary of the method: as §2

STEME [15] = experiment: Pre-emergence herbicidal action against STEME; assay type: in vivo, Stellaria media; conditions: Stellaria media, 504 h
Summary of the method: as §2

SETVI [16] = experiment: Post-emergence herbicidal action against SETVI; assay type: in vivo, Setaria viridis; conditions: Setaria viridis, 504 h, dosage 20 g/ha
Summary of the method: as §1

SETVI [17] = experiment: Pre-emergence herbicidal action against SETVI; assay type: in vivo, Setaria viridis; conditions: Setaria viridis, 504 h
Summary of the method: as §2

VERPE [18] = experiment: Post-emergence herbicidal action against VERPE; assay type: in vivo, Veronica persica; conditions: Veronica persica, 504 h, 20 g/ha
Summary of the method: as §1

VIOTR [19] = experiment: Post-emergence herbicidal action against VIOTR; assay type: in vivo, Viola tricolor; conditions: Viola tricolor, 504 h
Summary of the method: as §1

ALOMY [20] = experiment: Post-emergence herbicidal action against ALOMY; assay type: in vivo, Alopecurus myosuroides; conditions: Alopecurus myosuroides, 504 h, dosage 20 g/ha, visual assessment about 3 weeks after treatment vs untreated controls
Summary of the method: as §1

STEME [21] = experiment: Post-emergence herbicidal action against STEME; assay type: in vivo, Stellaria media; conditions: Stellaria media, 504 h
Summary of the method: as §1

HORMU = experiment: Post-emergence herbicidal action against HORMU; assay type: in vivo, Hordeum murinum; conditions: Hordeum murinum, 504 h, dosage 20 g/ha
Protocol: Seeds of monocotyledonous and dicotyledonous weed and crop plants are laid out in sandy loam soil in wood-fiber pots, covered with soil and cultivated in a greenhouse under good growth conditions. 2 to 3 weeks after sowing, the test plants are treated at the one-leaf stage. The compounds of the invention, formulated in the form of wettable powders (WP) or as emulsion concentrates (EC), are then sprayed onto the green parts of the plants in the form of an aqueous suspension or emulsion at a water application rate equivalent to 600 to 800 l/ha, with addition of 0.2% wetting agent. After the test plants have been left to stand in the greenhouse under optimal growth conditions for about 3 weeks, the action of the preparations is assessed visually in comparison to untreated controls (herbicidal action in percent (%): 100% activity=the plants have died, 0% activity=like control plants). […] The tables below illustrate, in an illustrative manner, the post-emergence herbicidal action of the compounds of the invention, the herbicidal activity being stated in percent.

VERPE [22] = experiment: Pre-emergence herbicidal action against VERPE; assay type: in vivo, Veronica persica; conditions: Veronica persica, 504 h
Summary of the method: as §2

CNC(=O)c1c(C(F)(F)F)ccc(C(=O)Nc2nnnn2C)c1C [Example 1-25]
pest or weed control at 5 g/ha (DIGSA [1]; 5 g/ha): 90% | pest or weed control at 20 g/ha (DIGSA [1]; 20 g/ha): 100% | pest or weed control at 80 g/ha (ALOMY [2]): 90% | pest or weed control at 80 g/ha (PHBPU [3]): 90% | pest or weed control at 20 g/ha (AMARE [4]): 100% | pest or weed control at 20 g/ha (MATIN [5]; dosage 20 g/ha): 90% | pest or weed control at 80 g/ha (MATIN [5]; dosage 80 g/ha): 100% | pest or weed control at 20 g/ha (VIOTR [6]; dosage 20 g/ha): 80% | pest or weed control at 80 g/ha (VIOTR [6]; dosage 80 g/ha): 100% | pest or weed control at 20 g/ha (ECHCG [7]): 100% | pest or weed control at 20 g/ha (DIGSA [8]; dosage 20 g/ha): 90% | pest or weed control at 80 g/ha (DIGSA [8]; dosage 80 g/ha): 100% | pest or weed control at 80 g/ha (POLCO): 80% | pest or weed control at 80 g/ha (AVEFA): 90% | pest or weed control at 80 g/ha (ABUTH [9]): 100% | pest or weed control at 20 g/ha (AMARE [10]; 20 g/ha): 100% | pest or weed control at 80 g/ha (AMARE [10]; 80 g/ha): 100% | pest or weed control at 20 g/ha (PHBPU [11]): 80% | pest or weed control at 20 g/ha (MATIN [12]): 100% | pest or weed control at 5 g/ha (ABUTH [13]; dosage 5 g/ha): 100% | pest or weed control at 20 g/ha (ABUTH [13]; dosage 20 g/ha): 100% | pest or weed control at 80 g/ha (LOLRI): 80% | pest or weed control at 80 g/ha (ECHCG [14]): 100% | pest or weed control at 20 g/ha (STEME [15]; dosage 20 g/ha): 80% | pest or weed control at 80 g/ha (STEME [15]; dosage 80 g/ha): 90% | pest or weed control at 20 g/ha (SETVI [16]): 80% | pest or weed control at 20 g/ha (SETVI [17]; dosage 20 g/ha): 80% | pest or weed control at 80 g/ha (SETVI [17]; dosage 80 g/ha): 100% | pest or weed control at 20 g/ha (VERPE [18]): 80% | pest or weed control at 5 g/ha (VIOTR [19]; 5 g/ha): 100% | pest or weed control at 20 g/ha (VIOTR [19]; 20 g/ha): 100% | pest or weed control at 20 g/ha (ALOMY [20]): 100% | pest or weed control at 20 g/ha (STEME [21]; 20 g/ha): 100% | pest or weed control at 5 g/ha (STEME [21]; dosage 5 g/ha): 80% | pest or weed control at 20 g/ha (HORMU): 100% | pest or weed control at 20 g/ha (VERPE [22]; dosage 20 g/ha): 80% | pest or weed control at 80 g/ha (VERPE [22]; dosage 80 g/ha): 100%
